Biological target: T1, MYO3B (MYO3 beta) (Homo sapiens, UniProt Q8WXR4)
T1 construct: purchased Thermo Fisher Scientific (Life Technologies) SelectScreen
Experiment: SelectScreen LanthaScreen
Assay type: binding
Conditions: read-out: % displacement
How it was run: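 NU5455 was profiled across the SelectScreen Broad panel of kinase activity and binding assays. Z'LYTE reactions such as CSF1R ran at apparent Km ATP, while the Adapta CAMK1 assay used ATP listed as 10. Values are given as percent.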

T1 sequence (Q8WXR4 whole entry): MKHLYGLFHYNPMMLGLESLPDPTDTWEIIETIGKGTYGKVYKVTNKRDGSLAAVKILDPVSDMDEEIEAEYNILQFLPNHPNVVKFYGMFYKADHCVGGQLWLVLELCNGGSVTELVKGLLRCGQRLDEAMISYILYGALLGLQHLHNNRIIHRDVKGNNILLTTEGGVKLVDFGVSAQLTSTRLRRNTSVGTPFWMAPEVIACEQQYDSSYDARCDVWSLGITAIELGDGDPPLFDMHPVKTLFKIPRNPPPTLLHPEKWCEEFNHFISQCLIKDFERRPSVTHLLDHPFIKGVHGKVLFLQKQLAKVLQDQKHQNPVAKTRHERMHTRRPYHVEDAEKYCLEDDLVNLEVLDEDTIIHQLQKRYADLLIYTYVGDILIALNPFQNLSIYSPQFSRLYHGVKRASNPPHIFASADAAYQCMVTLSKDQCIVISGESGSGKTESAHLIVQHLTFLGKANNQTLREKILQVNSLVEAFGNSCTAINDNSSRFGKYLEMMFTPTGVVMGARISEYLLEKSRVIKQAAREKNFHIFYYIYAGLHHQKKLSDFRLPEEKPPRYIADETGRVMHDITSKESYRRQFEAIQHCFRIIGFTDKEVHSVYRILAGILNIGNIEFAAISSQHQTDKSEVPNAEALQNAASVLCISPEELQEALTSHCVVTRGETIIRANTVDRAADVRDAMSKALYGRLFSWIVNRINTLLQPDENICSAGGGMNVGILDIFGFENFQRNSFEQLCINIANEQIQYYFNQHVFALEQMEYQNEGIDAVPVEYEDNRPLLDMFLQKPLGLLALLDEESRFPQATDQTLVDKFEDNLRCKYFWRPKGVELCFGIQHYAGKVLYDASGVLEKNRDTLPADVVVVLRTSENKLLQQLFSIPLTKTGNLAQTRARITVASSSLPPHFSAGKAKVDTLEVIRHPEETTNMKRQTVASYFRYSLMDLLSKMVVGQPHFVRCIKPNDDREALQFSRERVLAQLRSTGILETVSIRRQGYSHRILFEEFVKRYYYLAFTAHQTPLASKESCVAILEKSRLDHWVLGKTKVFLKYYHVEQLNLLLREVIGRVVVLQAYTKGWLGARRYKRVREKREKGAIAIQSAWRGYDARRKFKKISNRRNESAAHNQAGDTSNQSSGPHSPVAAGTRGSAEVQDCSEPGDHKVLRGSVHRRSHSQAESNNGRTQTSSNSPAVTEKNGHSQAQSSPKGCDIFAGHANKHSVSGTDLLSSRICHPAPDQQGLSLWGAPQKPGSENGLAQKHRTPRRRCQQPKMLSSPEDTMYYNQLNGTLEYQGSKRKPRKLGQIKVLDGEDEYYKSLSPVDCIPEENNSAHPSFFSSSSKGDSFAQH

CN(C(=O)CN1CCOCC1)c1ccc2sc3c(-c4cccc5c(=O)cc(N6CC7CCC(C6)O7)oc45)cccc3c2c1 [NU5455] was tested, and the inhibition at 1 µM was 2.3%.
